Measurements taken from patent publication US20260365670A1, “EGFR INHIBITORS AND USES THEREOF” (DIZAL (JIANGSU) PHARMACEUTICAL CO., LTD., priority 2022, published 2026).
Read-outs that look alike come from different tables or passages of the source.

Tests used:
EGFR wild type = molecular target: T1, EGFR wild type (Homo sapiens, UniProt P00533); test: Inhibition of EGFR wild type biochemical enzymatic activity (HTRF); details: EGFR WT, 1 mM ATP, 1 h, room temperature, read-out: IC50 (nM) @WT
T1 construct: purchased Carna Bio
T1 sequence (P00533 25-1210): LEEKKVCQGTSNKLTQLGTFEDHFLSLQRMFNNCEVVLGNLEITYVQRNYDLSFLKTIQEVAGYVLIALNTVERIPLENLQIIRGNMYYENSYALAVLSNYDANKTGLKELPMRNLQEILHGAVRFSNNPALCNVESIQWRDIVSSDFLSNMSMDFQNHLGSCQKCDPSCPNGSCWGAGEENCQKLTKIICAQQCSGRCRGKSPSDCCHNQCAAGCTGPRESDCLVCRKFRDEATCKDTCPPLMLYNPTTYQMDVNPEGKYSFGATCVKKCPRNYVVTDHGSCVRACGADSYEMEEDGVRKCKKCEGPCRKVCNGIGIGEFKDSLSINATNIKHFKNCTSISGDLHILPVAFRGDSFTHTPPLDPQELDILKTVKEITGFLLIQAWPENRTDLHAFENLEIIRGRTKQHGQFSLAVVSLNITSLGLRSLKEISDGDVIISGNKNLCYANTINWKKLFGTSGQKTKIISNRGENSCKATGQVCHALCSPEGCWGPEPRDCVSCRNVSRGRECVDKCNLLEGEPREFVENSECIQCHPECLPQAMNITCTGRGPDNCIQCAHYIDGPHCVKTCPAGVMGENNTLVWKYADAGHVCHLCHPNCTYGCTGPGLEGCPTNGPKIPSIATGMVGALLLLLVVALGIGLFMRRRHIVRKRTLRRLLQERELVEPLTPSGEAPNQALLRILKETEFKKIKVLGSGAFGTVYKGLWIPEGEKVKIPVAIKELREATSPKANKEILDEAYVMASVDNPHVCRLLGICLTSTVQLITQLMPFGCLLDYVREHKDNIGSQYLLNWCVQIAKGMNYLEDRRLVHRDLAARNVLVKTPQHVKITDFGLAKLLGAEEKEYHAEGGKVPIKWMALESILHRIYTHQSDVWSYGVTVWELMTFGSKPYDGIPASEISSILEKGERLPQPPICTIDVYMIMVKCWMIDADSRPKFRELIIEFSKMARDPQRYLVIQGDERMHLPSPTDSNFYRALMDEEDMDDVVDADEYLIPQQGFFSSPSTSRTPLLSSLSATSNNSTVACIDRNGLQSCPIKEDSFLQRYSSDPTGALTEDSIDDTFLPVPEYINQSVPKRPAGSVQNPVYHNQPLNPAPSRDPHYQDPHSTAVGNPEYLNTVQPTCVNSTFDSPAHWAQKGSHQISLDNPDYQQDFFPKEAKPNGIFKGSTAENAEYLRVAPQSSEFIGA
Outline: (§1)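 Kinase activity is measured by HTRF detection of biotinylated TK substrate (1 μM) phosphorylation at 1 mM ATP. Incubation lasts 1 h at room temperature before an EDTA stop, and IC50 is fitted with a four-parameter logistic model.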

EGFR L858R = molecular target: T2, EGFR L858R (Homo sapiens, UniProt P00533, L858R); test: Inhibition of EGFR L858R biochemical enzymatic activity (HTRF); details: 1 mM ATP, 1 h, room temperature, read-out: IC50 (nM) @L858R
T2 construct: purchased Carna Bio
Outline: as §1

EGFR L858R/T790M = molecular target: T3, EGFR L858R/T790M (Homo sapiens, UniProt P00533, L858R/T790M); test: Inhibition of EGFR L858R/T790M biochemical enzymatic activity (HTRF); details: EGFR L858R-T790M, 1 mM ATP, 1 h, room temperature, read-out: IC50 (nM) @L858R-T790M
T3 construct: purchased Carna Bio
Outline: as §1

EGFR Exon19Del = molecular target: T4, EGFR Exon19Del (Homo sapiens, UniProt P00533, DEL746-750); test: Inhibition of EGFR Exon19Del biochemical enzymatic activity (HTRF); details: EGFR Del19, 1 mM ATP, 1 h, room temperature, read-out: IC50 @Del19
T4 construct: purchased Carna Bio
T4 sequence (P00533 with tags, fused parts or gaps DEL746-750 limits assumed): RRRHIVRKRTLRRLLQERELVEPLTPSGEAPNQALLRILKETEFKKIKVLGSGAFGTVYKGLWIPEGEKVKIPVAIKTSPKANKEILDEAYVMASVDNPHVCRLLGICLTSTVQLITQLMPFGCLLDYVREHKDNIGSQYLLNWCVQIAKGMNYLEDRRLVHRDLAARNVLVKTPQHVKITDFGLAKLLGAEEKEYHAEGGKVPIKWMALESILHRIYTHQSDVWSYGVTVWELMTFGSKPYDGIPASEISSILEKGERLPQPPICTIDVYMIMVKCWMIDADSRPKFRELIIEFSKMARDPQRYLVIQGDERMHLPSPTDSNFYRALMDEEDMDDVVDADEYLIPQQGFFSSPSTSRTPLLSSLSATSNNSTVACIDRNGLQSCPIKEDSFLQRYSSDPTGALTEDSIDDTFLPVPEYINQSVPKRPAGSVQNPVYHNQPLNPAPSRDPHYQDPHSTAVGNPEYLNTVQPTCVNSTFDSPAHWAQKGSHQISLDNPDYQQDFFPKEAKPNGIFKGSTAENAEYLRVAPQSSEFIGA
Outline: as §1

EGFR Exon19Del/T790M = molecular target: T5, EGFR Exon19Del/T790M (Homo sapiens, UniProt P00533, DEL746-750/T790M); test: Inhibition of EGFR Exon19Del/T790M biochemical enzymatic activity (HTRF); details: EGFR Del19-T790M, 1 mM ATP, 1 h, room temperature, read-out: IC50 (nM) @Del19-T790M
T5 construct: purchased Carna Bio
T5 sequence (P00533 with tags, fused parts or gaps DEL746-750/T790M limits assumed): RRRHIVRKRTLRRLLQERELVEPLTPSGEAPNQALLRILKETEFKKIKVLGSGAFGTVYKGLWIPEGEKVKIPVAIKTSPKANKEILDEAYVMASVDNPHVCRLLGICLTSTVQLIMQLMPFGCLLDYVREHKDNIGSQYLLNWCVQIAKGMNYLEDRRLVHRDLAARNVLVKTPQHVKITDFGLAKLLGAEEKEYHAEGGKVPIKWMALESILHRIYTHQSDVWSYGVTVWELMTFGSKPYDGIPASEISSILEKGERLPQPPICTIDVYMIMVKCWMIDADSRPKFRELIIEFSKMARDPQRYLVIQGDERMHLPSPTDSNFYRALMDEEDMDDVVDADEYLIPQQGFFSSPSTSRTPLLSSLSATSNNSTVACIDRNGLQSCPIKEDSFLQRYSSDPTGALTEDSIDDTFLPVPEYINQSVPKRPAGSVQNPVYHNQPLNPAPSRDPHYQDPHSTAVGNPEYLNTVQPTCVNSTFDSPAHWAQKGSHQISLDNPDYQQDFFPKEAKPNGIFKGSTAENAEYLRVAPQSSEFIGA
Outline: as §1

EGFR[T790M/C797S/L858R] = molecular target: T6, EGFR[T790M/C797S/L858R] (Homo sapiens, UniProt P00533, C797S/L858R/T790M); test: Inhibition of EGFR[T790M/C797S/L858R] biochemical enzymatic activity (HTRF); details: EGFR T790M-C797S-L858R, 1 mM ATP, 1 h, room temperature, read-out: IC50 (nM) @T790M- C797S - L858R
T6 construct: purchased Carna Bio
T6 sequence (P00533 25-1210 T790M/C797S/L858R): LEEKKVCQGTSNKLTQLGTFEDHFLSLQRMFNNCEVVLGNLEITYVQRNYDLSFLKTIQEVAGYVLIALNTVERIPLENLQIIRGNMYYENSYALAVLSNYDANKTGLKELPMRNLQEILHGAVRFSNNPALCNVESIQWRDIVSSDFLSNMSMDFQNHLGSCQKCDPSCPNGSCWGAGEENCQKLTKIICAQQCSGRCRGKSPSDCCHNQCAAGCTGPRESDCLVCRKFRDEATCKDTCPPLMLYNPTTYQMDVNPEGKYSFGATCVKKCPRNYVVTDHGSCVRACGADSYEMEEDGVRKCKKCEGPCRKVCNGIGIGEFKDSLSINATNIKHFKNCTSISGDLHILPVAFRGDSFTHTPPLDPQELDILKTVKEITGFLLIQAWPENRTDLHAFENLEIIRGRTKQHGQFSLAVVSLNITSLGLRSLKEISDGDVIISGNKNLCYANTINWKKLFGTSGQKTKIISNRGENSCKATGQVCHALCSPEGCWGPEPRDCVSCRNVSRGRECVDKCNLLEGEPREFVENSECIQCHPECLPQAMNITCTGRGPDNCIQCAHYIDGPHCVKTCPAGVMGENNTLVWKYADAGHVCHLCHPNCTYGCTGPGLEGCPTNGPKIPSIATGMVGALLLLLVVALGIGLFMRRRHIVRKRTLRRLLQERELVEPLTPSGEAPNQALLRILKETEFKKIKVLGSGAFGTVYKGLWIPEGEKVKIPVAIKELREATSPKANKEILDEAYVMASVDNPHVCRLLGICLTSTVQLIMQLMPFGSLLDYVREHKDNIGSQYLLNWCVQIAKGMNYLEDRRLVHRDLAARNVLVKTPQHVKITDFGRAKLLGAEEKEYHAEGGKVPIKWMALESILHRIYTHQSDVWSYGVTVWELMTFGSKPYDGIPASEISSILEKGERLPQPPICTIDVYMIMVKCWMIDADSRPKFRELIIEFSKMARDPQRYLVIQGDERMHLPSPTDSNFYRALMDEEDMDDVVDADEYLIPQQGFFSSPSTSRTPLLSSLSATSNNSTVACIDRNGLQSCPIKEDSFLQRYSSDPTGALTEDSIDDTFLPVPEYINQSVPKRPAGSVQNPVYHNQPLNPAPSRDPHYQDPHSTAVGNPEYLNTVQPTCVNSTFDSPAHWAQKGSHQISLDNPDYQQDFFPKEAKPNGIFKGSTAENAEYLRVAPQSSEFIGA
Outline: as §1

[1] = molecular target: T7, EGFR[T790M/C797S/d746-750] (Homo sapiens, UniProt P00533, C797S/DEL746-750/T790M); test: Inhibition of EGFR[T790M/C797S/d746-750] biochemical enzymatic activity (HTRF); details: EGFR T790M-C797S-Del19, 1 mM ATP, 1 h, room temperature, read-out: IC50 (nM) @T790M - C797S - Del19
T7 construct: purchased Carna Bio
T7 sequence (P00533 with tags, fused parts or gaps DEL746-750/T790M/C797S limits assumed): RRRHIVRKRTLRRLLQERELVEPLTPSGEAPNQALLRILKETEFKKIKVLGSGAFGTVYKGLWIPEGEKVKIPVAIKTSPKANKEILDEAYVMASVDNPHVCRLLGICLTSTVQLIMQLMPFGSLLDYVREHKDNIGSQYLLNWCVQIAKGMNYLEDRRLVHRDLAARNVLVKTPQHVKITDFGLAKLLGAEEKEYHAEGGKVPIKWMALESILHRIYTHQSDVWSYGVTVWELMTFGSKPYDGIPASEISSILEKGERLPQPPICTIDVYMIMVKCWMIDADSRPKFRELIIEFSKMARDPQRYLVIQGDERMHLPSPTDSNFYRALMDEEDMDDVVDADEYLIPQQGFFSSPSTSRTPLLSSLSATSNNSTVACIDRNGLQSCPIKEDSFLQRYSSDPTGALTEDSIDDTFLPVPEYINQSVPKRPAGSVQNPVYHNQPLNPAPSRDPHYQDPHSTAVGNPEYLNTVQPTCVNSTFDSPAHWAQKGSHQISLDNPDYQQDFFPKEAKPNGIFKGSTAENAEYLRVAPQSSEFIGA
Outline: as §1

EGFR (d746-750 C797S) = molecular target: T8, EGFR (d746-750 C797S) (Homo sapiens, UniProt P00533, C797S/DEL746-750); test: Inhibition of EGFR (d746-750 C797S) biochemical enzymatic activity (HTRF); details: EGFR Del19-C797S, 1 mM ATP, 1 h, room temperature, read-out: IC50 (nM) @Del19-C797S
T8 construct: purchased signalchem
T8 sequence (P00533 with tags, fused parts or gaps DEL746-750/C797S limits assumed): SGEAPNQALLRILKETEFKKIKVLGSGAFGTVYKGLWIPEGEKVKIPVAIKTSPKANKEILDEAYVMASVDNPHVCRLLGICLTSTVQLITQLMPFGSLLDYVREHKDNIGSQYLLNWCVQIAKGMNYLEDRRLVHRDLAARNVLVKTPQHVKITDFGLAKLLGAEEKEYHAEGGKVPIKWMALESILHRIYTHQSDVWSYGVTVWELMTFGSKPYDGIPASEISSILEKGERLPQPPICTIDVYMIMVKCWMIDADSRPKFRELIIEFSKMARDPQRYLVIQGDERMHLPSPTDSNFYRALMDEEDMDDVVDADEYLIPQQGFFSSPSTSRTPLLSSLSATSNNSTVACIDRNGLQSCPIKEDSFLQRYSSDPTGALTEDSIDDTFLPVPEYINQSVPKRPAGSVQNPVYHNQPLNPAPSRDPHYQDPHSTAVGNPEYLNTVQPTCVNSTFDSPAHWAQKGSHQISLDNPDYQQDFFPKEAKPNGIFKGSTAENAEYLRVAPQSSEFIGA
Outline: as §1

EGFR (C797S L858R) = molecular target: T9, EGFR (C797S L858R) (Homo sapiens, UniProt P00533, C797S/L858R); test: Inhibition of EGFR (C797S L858R) biochemical enzymatic activity (HTRF); details: EGFR L858-C797S, 1 mM ATP, 1 h, room temperature, read-out: IC50 (nM) @L858-C797S
T9 construct: purchased signalchem
Outline: as §1

[2] = tested on: Ba/F3 cells expressing EGFR mutations; test: Cell proliferation assay, Ba/F3 cells expressing EGFR mutations (CellTiter-Glo, 72 hours); assay type: cell-based; details: CellTiter-Glo
Outline: (§2)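 GI50 is the concentration giving 50% proliferation inhibition. Growth for this was normalised to a baseline viability reading taken when compound was added, and to DMSO wells. PC-9 (500 cells/well) and mutant-EGFR Ba/F3 (5000 cells/well) are treated after overnight seeding in RPMI1640-based medium.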

PC-9 = test: Cell proliferation assay, PC-9 cells (CellTiter-Glo, 72 hours); assay type: cell-based; details: PC9 cells, CellTiter-Glo, read-out: PC9 GI50
Outline: as §2

A-431 = test: Cell proliferation GI50, A-431 cells (Table 6); assay type: cell-based
[3] = Homo sapiens, A-431, A-431 cells
[4] = BaF3 cells, EGFR DEL19-C797S, read-out: DEL19-C797S/BaF3 GI50
[5] = BaF3 cells, EGFR DEL19-T790-C797S, read-out: DEL19-T790-C797S/BaF3 GI50
[6] = BaF3 cells, EGFR L858R, read-out: L858R/BaF3 GI50
[7] = BaF3 cells, EGFR L858R-C797S, read-out: L858R-C797S/BaF3 GI50
[8] = BaF3 cells, EGFR L858R-T790-C797S, read-out: L858R-T790-C797S/BaF3 GI50
[9] = BaF3 cells, EGFR L858R-T790M, read-out: L858R-T790M/BaF3 GI50
[10] = EGFR DEL19-T790M, read-out: DEL19-T790M GI50

## Cn1ncc2c1OCCN1CC3CCC(C3)(C1)n1c(nc3ccc(N4CCOCC4)cc31)NC(=O)c1cc-2c(=O)n(C)c1 (single isomer, unassigned) [Example A62B, 15,21-Dimethyl-5-(morpholin-4-yl)-23-oxa-2,9,11,15,20,21,26-heptaazaheptacyclo[24.4.1.1^{1,28}.1^{13,17}.0^{2,10}.0^{3,8}.0^{18,22}]tritriaconta-3,5,7,9,13,17(33),18(22),19-octaene-12,16-dione]
EGFR wild type
  IC50: 809 nM
EGFR L858R
  IC50: 45 nM
EGFR L858R/T790M
  IC50: 6.3 nM
EGFR Exon19Del
  IC50: 3.5 nM
EGFR Exon19Del/T790M
  IC50: 2.8 nM
EGFR[T790M/C797S/L858R]
  IC50: 4.3 nM
[1]
  IC50: 2.9 nM
EGFR (d746-750 C797S)
  IC50: 1.4 nM
EGFR (C797S L858R)
  IC50: 19 nM
[2]; Mus musculus, BaF3, 72 h, BaF3 cells, EGFR DEL19-C797S, read-out: DEL19-C797S/BaF3 GI50
  GI50: 0.64 nM
[2]; Mus musculus, BaF3, 72 h, BaF3 cells, EGFR DEL19-T790-C797S, read-out: DEL19-T790-C797S/BaF3 GI50
  GI50: 2.5 nM
[2]; Mus musculus, BaF3, 72 h, BaF3 cells, EGFR L858R, read-out: L858R/BaF3 GI50
  GI50: 3.9 nM
[2]; Mus musculus, BaF3, 72 h, BaF3 cells, EGFR L858R-C797S, read-out: L858R-C797S/BaF3 GI50
  GI50: 5.2 nM
[2]; Mus musculus, BaF3, 72 h, BaF3 cells, EGFR L858R-T790-C797S, read-out: L858R-T790-C797S/BaF3 GI50
  GI50: 5.3 nM
[2]; Mus musculus, BaF3, 72 h, BaF3 cells, EGFR L858R-T790M, read-out: L858R-T790M/BaF3 GI50
  GI50: 8.4 nM
[2]; Mus musculus, BaF3, 72 h, EGFR DEL19-T790M, read-out: DEL19-T790M GI50
  GI50: 2.6 nM
PC-9; Homo sapiens, PC-9, 72 h
  GI50: 10 nM
A-431; [3]
  GI50: 1070 nM

## CN1CCN(c2ccc3nc4n(c3c2)C23CCC(CN(CCOc5c(cnn5C)-c5cc(cn(C)c5=O)C(=O)N4)C2)C3)CC1 (single isomer, unassigned) [Example A63B]
EGFR wild type
  IC50: 8 nM
EGFR L858R
  IC50: 1.6 nM
EGFR L858R/T790M
  IC50: 0.92 nM
EGFR Exon19Del
  IC50: 0.86 nM
EGFR Exon19Del/T790M
  IC50: 0.94 nM
EGFR[T790M/C797S/L858R]
  IC50: 0.96 nM
[1]
  IC50: 1.1 nM
EGFR (d746-750 C797S)
  IC50: 0.51 nM
EGFR (C797S L858R)
  IC50: 1.1 nM
[2]; [4]
  GI50: 0.67 nM
[2]; [5]
  GI50: 1.4 nM
[2]; [6]
  GI50: 1.1 nM
[2]; [7]
  GI50: 3.1 nM
[2]; [8]
  GI50: 1.3 nM
[2]; [9]
  GI50: 8.6 nM
[2]; [10]
  GI50: 1.9 nM
PC-9
  GI50: 5 nM
A-431; A-431 cells
  GI50: 620 nM

## CN(C)C1CCN(c2ccc3nc4n(c3c2)C23CCC(CN(CCOc5c(cnn5C)-c5cc(cn(C)c5=O)C(=O)N4)C2)C3)CC1 (single isomer, unassigned) [Example A64A]
EGFR wild type
  IC50: > 5000 nM
EGFR L858R
  IC50: > 5000 nM
EGFR L858R/T790M
  IC50: > 5000 nM
EGFR Exon19Del
  IC50: 2160 nM
EGFR Exon19Del/T790M
  IC50: > 5000 nM
EGFR[T790M/C797S/L858R]
  IC50: > 5000 nM
[1]
  IC50: 2100 nM
EGFR (d746-750 C797S)
  IC50: 1920 nM
EGFR (C797S L858R)
  IC50: > 5000 nM
[2]; [4]
  GI50: 215 nM
[2]; [5]
  GI50: 513 nM
[2]; [6]
  GI50: 599 nM
[2]; [7]
  GI50: 443 nM
[2]; [8]
  GI50: 381 nM
[2]; [9]
  GI50: 2100 nM
[2]; [10]
  GI50: 755 nM
PC-9
  GI50: 546 nM
A-431; A-431 cells
  GI50: 6130 nM

## CN(C)C1CCN(c2ccc3nc4n(c3c2)C23CCC(CN(CCOc5c(cnn5C)-c5cc(cn(C)c5=O)C(=O)N4)C2)C3)CC1 (single isomer, unassigned) [Example A64B]
EGFR wild type
  IC50: 3.6 nM
EGFR L858R
  IC50: 2 nM
EGFR L858R/T790M
  IC50: 2 nM
EGFR Exon19Del
  IC50: 1 nM
EGFR Exon19Del/T790M
  IC50: 1.8 nM
EGFR[T790M/C797S/L858R]
  IC50: 1.9 nM
[1]
  IC50: 2 nM
EGFR (d746-750 C797S)
  IC50: 0.95 nM
EGFR (C797S L858R)
  IC50: 2 nM
[2]; [4]
  GI50: 0.71 nM
[2]; [5]
  GI50: 0.92 nM
[2]; [6]
  GI50: 0.91 nM
[2]; [7]
  GI50: 1.7 nM
[2]; [8]
  GI50: 0.79 nM
[2]; [9]
  GI50: 4.9 nM
[2]; [10]
  GI50: 1.3 nM
PC-9
  GI50: 3.3 nM
A-431; A-431 cells
  GI50: 973 nM

## CN(C)C1CN(c2ccc3nc4n(c3c2)C23CCC(CN(CCOc5c(cnn5C)-c5cc(cn(C)c5=O)C(=O)N4)C2)C3)C1 (single isomer, unassigned) [Example A65B]
EGFR wild type
  IC50: 148 nM
EGFR L858R
  IC50: 16 nM
EGFR L858R/T790M
  IC50: 2.4 nM
EGFR Exon19Del
  IC50: 0.94 nM
EGFR Exon19Del/T790M
  IC50: 1.7 nM
EGFR[T790M/C797S/L858R]
  IC50: 1.8 nM
[1]
  IC50: 1.7 nM
EGFR (d746-750 C797S)
  IC50: 0.97 nM
EGFR (C797S L858R)
  IC50: 7.4 nM
[2]; [4]
  GI50: 0.71 nM
[2]; [5]
  GI50: 2.2 nM
[2]; [6]
  GI50: 2.7 nM
[2]; [7]
  GI50: 3.5 nM
[2]; [8]
  GI50: 2.8 nM
[2]; [9]
  GI50: 11 nM
[2]; [10]
  GI50: 2.4 nM
PC-9
  GI50: 5.6 nM
A-431; A-431 cells
  GI50: 538 nM

## CN(C)[C@H]1CCN(c2ccc3nc4n(c3c2)C23CCC(CN(CCOc5c(cnn5C)-c5cc(cn(C)c5=O)C(=O)N4)C2)C3)C1 (single isomer, unassigned) [Example A66B]
EGFR wild type
  IC50: 62 nM
EGFR L858R
  IC50: 7.9 nM
EGFR L858R/T790M
  IC50: 2.6 nM
EGFR Exon19Del
  IC50: 1.9 nM
EGFR Exon19Del/T790M
  IC50: 2.8 nM
EGFR[T790M/C797S/L858R]
  IC50: 3.2 nM
[1]
  IC50: 2.9 nM
EGFR (d746-750 C797S)
  IC50: 1.7 nM
EGFR (C797S L858R)
  IC50: 8.1 nM
[2]; [4]
  GI50: 0.67 nM
[2]; [5]
  GI50: 2.1 nM
[2]; [6]
  GI50: 2.4 nM
[2]; [7]
  GI50: 3.6 nM
[2]; [8]
  GI50: 2.2 nM
[2]; [9]
  GI50: 11 nM
[2]; [10]
  GI50: 1.9 nM
PC-9
  GI50: 6.1 nM
A-431; [3]
  GI50: 815 nM
